Results on eight compounds are retold here after US20260200943A1, “COMPOUNDS FOR TREATING CANCER” (Genesis Therapeutics, Inc., priority 2022, published 2026).

Structures are written as SMILES. Where only a bound is given, the exact number is not on record here.

Format in all cases: biochemical
Test [1] concerns the target T1, CDK1/CyclinB1 (Homo sapiens, UniProt P06493).
T1 construct: Wild-type, full length CDK1 in complex with wildtype, full length CyclinB1: Carna Cat #04-102; purchased Carna 04-102
Description: CDK1/Cyclin B1 Mobility Shift Assay (Caliper, Table B). Conditions: read-out: CDK1/CCNB1 Caliper Ki: Average Ki. As for the experimental part: 10 nL of 2000× compound in 100% DMSO is added to a 384-well polypropylene assay plate. 15 μL of 1.3×CDK1/B1 and 1.3× fluorescent substrate (Wild-type, full length CDK1 in complex with wildtype, full length CyclinB1: Carna Cat #04-102 and FL-Peptide 29: PerkinElmer Cat #760429) diluted in kinase buffer (50 mM Hepes, 0.01% Brij-35, 10 mM MgCl2, 1 mM EGTA, 0.05% BSA, and 2 mM DTT) is added to the plates on top of the compound, mixed, and pre-incubated for 30 minutes at room temperature. The fluorescently labeled peptide substrate is phosphorylated by CDK1/B1 upon ATP hydrolysis. Following the incubation, 5 μL of 4×ATP diluted in kinase buffer is added to the plate to initiate the reaction. Following the 30-minute incubation, the reaction is stopped by adding 75 μL of stopping buffer containing 0.5 M EDTA.
(§1) The assay plate is then read on a Lab Chip EZ Reader which separates the fluorescently labeled substrate and product peptides through a mobility difference. The phosphorylation of the substrate imparts a negative charge, which allows differences in separation as both are pulled through the microfluidic chip. The ratio of substrate and product values are used to generate percent conversion. These raw percent conversion values are normalized to calculate percent inhibition, which are fit to a four-parameter logistic curve and IC50 values are calculated. IC50 values are converted to Ki using substrate, Kmapp values, and the Cheng-Prusoff equation.

In test [2] the target is T2, CDK2/CyclinA2 (Homo sapiens, UniProt P24941).
T2 construct: Wild-type, full length CDK2 in complex with wildtype, full length CyclinA2: Carna Cat #04-103; purchased Carna 04-103
The test can be described thus: CDK2/Cyclin A2 Mobility Shift Assay (Caliper, Table B). Conditions: for Ki: Caliper mobility shift, 10xKm, read-out: CDK2/CCNA2 Caliper 10xKm Ki: Average Ki. As for the experimental part:
10 nL of 2000× compound in 100% DMSO is added to a 384-well polypropylene assay plate. 15 μL of 1.3×CDK2/A2 and 1.3× fluorescent substrate (Wild-type, full length CDK2 in complex with wildtype, full length CyclinA2: Carna Cat #04-103 and FL-Peptide 18: PerkinElmer Cat #760362) diluted in kinase buffer (50 mM Hepes, 0.01% Brij-35, 10 mM MgCl2, 1 mM EGTA, 0.05% BSA, and 2 mM DTT) is added to the plates on top of the compound, mixed, and pre-incubated for 30 minutes at room temperature. The fluorescently labeled peptide substrate is phosphorylated by CDK2/A2 upon ATP hydrolysis. Following the incubation, 5 μL of 4×ATP diluted in kinase buffer is added to the plate to initiate the reaction. Following the 30-minute incubation, the reaction is stopped by adding 75 μL of stopping buffer containing 0.5 M EDTA.
as §1, with “Ki through” for “Ki”, “substrate and Km^app” for “substrate, Kmapp”

Test [3] addresses T1, CDK1/CyclinB1. Description: CDK1/CyclinB1 ChEF Assay (Table A).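 Also: Ki reported in nM.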 The following applies: read-out: CDK1/CCNB1 ChEF Ki: Average Ki. The method, then:
500 nL of 50× compound in 100% DMSO is added to a 384-well low volume, white assay plate. 19.5 μL of 1.3×CDK1/CyclinB1 (Wild-type, full length CDK1 in complex with wildtype, full length CyclinB1: Carna Cat #04-102) diluted in assay buffer (50 mM Hepes, 0.01% Brij-35, 10 mM MgCl2, 0.5 mM EGTA, 1% Glycerol, and 1.2 mM DTT) is added to the plates on top of the compound and pre-incubated for 30 minutes at room temperature. Following the incubation, 5 μL of 5×Sox-chromophore (CSox) labeled peptide substrate (AQT0297, AssayQuant) & ATP diluted in assay buffer is added to the plate to initiate the reaction. The assay is incubated at room temperature for 30 min after initiation. The CSox peptide substrate is phosphorylated by CDK1/B1 upon ATP hydrolysis.
(§2) The fluorescent intensity measurement of the assay plate for all assays described above is read on a microplate reader once the assay is initiated and again at the completion of the assay. Phosphorylation of the CSox-based peptide substrate sensor results in an immediate increase in fluorescence. These raw fluorescence intensity values are normalized to calculate percent inhibition, which are fit to a four-parameter logistic curve and IC50 values are calculated. IC50 values are converted to Ki using substrate, KM^app values, and the Cheng-Prusoff equation.

Test [4] deals with T2, CDK2/CyclinA2. The test can be described thus: CDK2/CyclinA2 ChEF Assay (Table A). Conditions: for Ki: 10xKm, read-out: CDK2/CCNA2 ChEF 10xKm Ki: Average Ki. As for the experimental part: 500 nL of 50× compound in 100% DMSO is added to a 384-well low volume, white assay plate. 19.5 μL of 1.3×CDK2/CyclinA2 (Wild-type, full length CDK2 in complex with wildtype, full length CyclinA2: Carna Cat #04-103 diluted in assay buffer (50 mM Hepes, 0.01% Brij-35, 10 mM MgCl2, 0.5 mM EGTA, 1% Glycerol, and 1.2 mM DTT) is added to the plates on top of the compound and pre-incubated for 30 minutes at room temperature. Following the incubation, 5 μL of 5×Sox-chromophore (CSox) labeled peptide substrate (AQT0255, AssayQuant) & ATP diluted in assay buffer is added to the plate to initiate the reaction. The assay is incubated at room temperature for 45 min after initiation. The CSox peptide substrate is phosphorylated by CDK2/A2 upon ATP hydrolysis.
as §2

T1 sequence (P06493 whole entry): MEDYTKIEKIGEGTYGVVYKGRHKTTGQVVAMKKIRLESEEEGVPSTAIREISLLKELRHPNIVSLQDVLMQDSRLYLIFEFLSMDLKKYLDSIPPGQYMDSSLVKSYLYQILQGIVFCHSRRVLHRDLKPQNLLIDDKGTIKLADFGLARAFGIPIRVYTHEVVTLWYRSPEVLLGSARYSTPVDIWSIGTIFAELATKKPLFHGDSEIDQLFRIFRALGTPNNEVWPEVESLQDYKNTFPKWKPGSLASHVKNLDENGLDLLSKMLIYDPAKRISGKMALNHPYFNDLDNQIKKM
T1 sequence (P14635 whole entry partner): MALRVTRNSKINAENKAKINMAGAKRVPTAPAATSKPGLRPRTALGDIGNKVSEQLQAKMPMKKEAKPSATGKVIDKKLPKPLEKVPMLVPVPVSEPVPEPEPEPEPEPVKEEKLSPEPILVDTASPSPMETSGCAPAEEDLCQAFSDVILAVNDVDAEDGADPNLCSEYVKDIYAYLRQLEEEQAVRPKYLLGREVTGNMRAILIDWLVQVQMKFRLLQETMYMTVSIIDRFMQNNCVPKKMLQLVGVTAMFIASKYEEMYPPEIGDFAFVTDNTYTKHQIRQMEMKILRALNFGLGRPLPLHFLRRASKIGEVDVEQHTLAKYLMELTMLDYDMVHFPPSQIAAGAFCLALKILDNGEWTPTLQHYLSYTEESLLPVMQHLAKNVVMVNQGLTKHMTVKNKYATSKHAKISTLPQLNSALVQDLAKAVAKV

Take `O=C1NCCOCCNS(=O)(=O)c2ccc(c(F)c2)Nc2cc([nH]n2)[C@H]2CC[C@H](C2)O1` [Compound 89, (1^1S,1^3R,Z)-4^2-Fluoro-2^1H-9,14-dioxa-5-thia-3,6,12-triaza-2(5,3)-pyrazola-4(1,4)-benzena-1(1,3)-cyclopentanacyclotetradecaphan-13-one 5,5-dioxide]: in test [1], the Ki fell in the range of 1 to 25 nM. In test [2], the Ki was in the range of 1 to 25 nM, the “CDK2/CCNA2 Caliper 10xKm Ki: CDK2/A2 Selectivity over CDK1/B1” value is “A (A>10)” and the “CDK2/CCNA2 Caliper 10xKm Ki: CDK2/A2 Selectivity over CDK9” value is listed as “A (A>10)”. The Ki in test [3] is 1 to 25 nM. For the same compound, in test [4], the Ki is 1 to 25 nM and the “CDK2/CCNA2 ChEF 10xKm Ki: CDK2/A2 Selectivity over CDK9/T1” value is “A (A>10)”.
Take `O=C1NCCCCCNS(=O)(=O)c2ccc(c(F)c2)Nc2cc([nH]n2)[C@H]2CC[C@H](C2)O1` [Compound 90, (1^1S,1^3R,Z)-4^2-fluoro-2^1H-14-oxa-5-thia-3,6,12-triaza-2(5,3)-pyrazola-4(1,4)-benzena-1(1,3)-cyclopentanacyclotetradecaphan-13-one 5,5-dioxide]: the Ki fell in the range of 25 to 100 nM in test [1], 1 to 25 nM in test [2], 1 to 25 nM in test [3] and 1 to 25 nM in test [4]. The “CDK2/CCNA2 Caliper 10xKm Ki: CDK2/A2 Selectivity over CDK1/B1” value in test [2] is “A (A>10)”. Further, in test [2], the “CDK2/CCNA2 Caliper 10xKm Ki: CDK2/A2 Selectivity over CDK9” value is “A (A>10)”. In addition, the “CDK2/CCNA2 ChEF 10xKm Ki: CDK2/A2 Selectivity over CDK9/T1” value in test [4] was “A (A>10)”.
`O=C1NCCCCCCNS(=O)(=O)c2ccc(c(F)c2)Nc2cc([nH]n2)[C@H]2CC[C@H](C2)O1` [Compound 91, (1^1S,1^3R,Z)-4^2-fluoro-2^1H-15-oxa-5-thia-3,6,13-triaza-2(5,3)-pyrazola-4(1,4)-benzena-1(1,3)-cyclopentanacyclopentadecaphan-14-one 5,5-dioxide]: the Ki in test [1] is 1 to 25 nM. In test [2], the Ki is under 1 nM, the “CDK2/CCNA2 Caliper 10xKm Ki: CDK2/A2 Selectivity over CDK1/B1” value is on record as “A (A>10)”, the “CDK2/CCNA2 Caliper 10xKm Ki: CDK2/A2 Selectivity over CDK6/D3” value was “A (A>10)” and the “CDK2/CCNA2 Caliper 10xKm Ki: CDK2/A2 Selectivity over CDK9” value is on record as “A (A>10)”. Also, the Ki in test [3] fell in the range of 1 to 25 nM. Also, in test [4], the Ki was under 1 nM and the “CDK2/CCNA2 ChEF 10xKm Ki: CDK2/A2 Selectivity over CDK9/T1” value is recorded as “A (A>10)”.
With `O=C1NCCCCCCCNS(=O)(=O)c2ccc(c(F)c2)Nc2cc([nH]n2)[C@H]2CC[C@H](C2)O1` [Compound 92], in test [1], the Ki is under 1 nM. Moreover, in test [2], the Ki is under 1 nM, the “CDK2/CCNA2 Caliper 10xKm Ki: CDK2/A2 Selectivity over CDK1/B1” value was “A (A>10)”, the “CDK2/CCNA2 Caliper 10xKm Ki: CDK2/A2 Selectivity over CDK6/D3” value is reported as “A (A>10)” and the “CDK2/CCNA2 Caliper 10xKm Ki: CDK2/A2 Selectivity over CDK9” value is recorded as “A (A>10)”. The Ki in test [3] was under 1 nM. In test [4], the Ki is under 1 nM and the “CDK2/CCNA2 ChEF 10xKm Ki: CDK2/A2 Selectivity over CDK9/T1” value is recorded as “A (A>10)”.
As to `O=C1NCCCn2cc(cn2)S(=O)(=O)N2CCC(CC2)Nc2cc([nH]n2)[C@H]2CC[C@H](C2)O1` [Compound 95, (1^1S, 1^3R,2^4Z,6^4E)-2^1H,6^1H-12-oxa-5-thia-3,10-diaza-4(4,1)-piperidina-2(5,3),6(4,1)-dipyrazola-1(1,3)-cyclopentanacyclododecaphan-11-one 5,5-dioxide], the Ki in test [1] was at least 100 nM. Also, in test [2], the Ki was 25 to 100 nM, the “CDK2/CCNA2 Caliper 10xKm Ki: CDK2/A2 Selectivity over CDK1/B1” value is reported as “B (5≤B<10)” and the “CDK2/CCNA2 Caliper 10xKm Ki: CDK2/A2 Selectivity over CDK9” value is “B (5≤B<10)”. Also, the Ki in test [3] is at least 100 nM. Moreover, in test [4], the Ki is at least 100 nM and the “CDK2/CCNA2 ChEF 10xKm Ki: CDK2/A2 Selectivity over CDK9/T1” value is reported as “C (C<5)”.
As for `O=C1NCCCCCn2cc(cn2)S(=O)(=O)N2CCC(CC2)Nc2cc([nH]n2)[C@H]2CC[C@H](C2)O1` [Compound 96, (1^1S,1^3R,2^4Z,6^4E)-2^1H,6^1H-14-oxa-5-thia-3,12-diaza-4(4,1)-piperidina-2(5,3),6(4,1)-dipyrazola-1(1,3)-cyclopentanacyclotetradecaphan-13-one 5,5-dioxide], the Ki in test [1] is at least 100 nM. In test [2], the Ki was in the range of 1 to 25 nM, the “CDK2/CCNA2 Caliper 10xKm Ki: CDK2/A2 Selectivity over CDK1/B1” value is “A (A>10)” and the “CDK2/CCNA2 Caliper 10xKm Ki: CDK2/A2 Selectivity over CDK9” value is listed as “A (A>10)”. For the same compound, in test [3], the Ki fell in the range of 25 to 100 nM. Also, in test [4], the Ki was in the range of 1 to 25 nM and the “CDK2/CCNA2 ChEF 10xKm Ki: CDK2/A2 Selectivity over CDK9/T1” value is on record as “A (A>10)”.
As to `O=C1NCCCCCCn2cc(cn2)S(=O)(=O)N2CCC(CC2)Nc2cc([nH]n2)[C@H]2CC[C@H](C2)O1` [Compound 97, (1^1S,1^3R,2^4Z,6^4E)-2^1H,6^1H-15-oxa-5-thia-3,13-diaza-4(4,1)-piperidina-2(5,3),6(4,1)-dipyrazola-1(1,3)-cyclopentanacyclopentadecaphan-14-one 5,5-dioxide], in test [1], the Ki is 1 to 25 nM. In addition, in test [2], the Ki lay in the range of 1 to 25 nM, the “CDK2/CCNA2 Caliper 10xKm Ki: CDK2/A2 Selectivity over CDK1/B1” value is “A (A>10)” and the “CDK2/CCNA2 Caliper 10xKm Ki: CDK2/A2 Selectivity over CDK9” value was “A (A>10)”. The Ki in test [3] was in the range of 1 to 25 nM. Besides, in test [4], the Ki was under 1 nM and the “CDK2/CCNA2 ChEF 10xKm Ki: CDK2/A2 Selectivity over CDK9/T1” value is given as “A (A>10)”.
In the case of `O=C1NCCCNS(=O)(=O)c2ccc(c(F)c2)Nc2cc([nH]n2)[C@H]2CC[C@H](C2)O1` [Compound 98, (1^1S, 1^3R,Z)-4^2-fluoro-2^1H-12-oxa-5-thia-3,6, 10-triaza-2(5,3)-pyrazola-4(1,4)-benzena-1(1,3)-cyclopentanacyclododecaphan-11-one 5,5-dioxide], in test [1], the Ki is at least 100 nM. In addition, in test [2], the Ki lay within 25 to 100 nM, the “CDK2/CCNA2 Caliper 10xKm Ki: CDK2/A2 Selectivity over CDK1/B1” value is given as “A (A>10)” and the “CDK2/CCNA2 Caliper 10xKm Ki: CDK2/A2 Selectivity over CDK9” value is recorded as “A (A>10)”. Further, in test [3], the Ki was at least 100 nM. In addition, in test [4], the Ki was 25 to 100 nM and the “CDK2/CCNA2 ChEF 10xKm Ki: CDK2/A2 Selectivity over CDK9/T1” value was “B (5≤B<10)”.
